Like-named read-outs stand apart in the source and are kept apart here.
Experiments:
in vivo = conditions: CD-1, mouse, 50 mg/kg
HT29 cells = assay: Clonogenic assay - oxygen dependence; conditions: Homo sapiens
NCI H460 xenograft = assay: H460 xenograft mouse model with CDDP (Example 51); format: in vivo; conditions: 50 mg/kg daily or 100 mg/kg every three days, saline formulation
Method: Female CB17/SCID mice (purchased from Charles River, Cambridge, Mass.), 7-8 weeks of age, were allowed to acclimatize for at least three days, and handled under pathogen-free conditions. Human non-small cell lung carcinoma cell line NCI H460 was obtained from the American Type Culture Collection. The cell lines were cultured and harvested as described in Example 47 above, and inoculated at 3×10^6 cells/animal in the peritoneal subcutaneous space. When the tumors grew to an average volume of 100 mm^3, treatment was initiated in which groups of 10 mice received vehicle (Group 1), CDDP at 3 or 6 mg/kg (Groups 2 and 3, respectively, IV one time), Compound 25 at 50 mg/kg in saline 5 times per week for two weeks (Group 4), Compound 25 at 100 mg/kg every three days for 5 times (Group 5) or the combination of each dose of Compound 25 with either 3 or 6 mg/kg of CDDP (Groups 6 and 7, respectively). Results for groups receiving 50 mg/kg of Compound 25 are illustrated in the FIG. 1.

PC3 cells = assay: Antiproliferation assay (Alamar Blue), anoxia vs air; conditions: Homo sapiens, PC-3, 2 h

SMILES	AUC (in vivo; ip) [µg·h/mL]	Cmax (in vivo; ip) [ng/mL]	Tmax (in vivo; ip) [min]	half-life (in vivo; ip) [min]	AUC (in vivo; iv) [µg·h/mL]	Cmax (in vivo; iv) [ng/mL]	Tmax (in vivo; iv) [min]	half-life (in vivo; iv) [min]	IC90 (HT29 cells; HT-29, read-out: IC90 HT29 0.6% O2) [µM]	IC90 (HT29 cells; HT-29, read-out: IC90 HT29 Air) [µM]	IC90 (HT29 cells; HT-29, read-out: IC90 HT29 N2) [µM]	tumor volume and tumor growth delay (NCI H460 xenograft)	IC50 (PC3 cells; read-out: IC50 PC3 Air) [µM]	IC50 (PC3 cells; read-out: IC50 PC3 Anoxia) [µM]
Cn1c(COP(=O)(NCCCl)NCCCl)cnc1[N+](=O)[O-] [Compound 36]	1440	44000	15	11	646	27700	5	14.1						
Cn1c(COP(=O)(NCCBr)NCCBr)cnc1[N+](=O)[O-] [Compound 25]									3	40	0.2	significant dose related decrease in tumor volume and increase in tumor growth delay	> 100	0.6
